By pIC50 is commonly meant −log10 of the IC50, conventionally taken in molar units. Read a low pIC50 as a large IC50.

SMILES strings stand for the structures. pIC50: −log10 of the molar value.

This assay has as its target T1, androgen receptor (Homo sapiens, UniProt P10275).
T1 sequence (P10275 1-920 Q868H): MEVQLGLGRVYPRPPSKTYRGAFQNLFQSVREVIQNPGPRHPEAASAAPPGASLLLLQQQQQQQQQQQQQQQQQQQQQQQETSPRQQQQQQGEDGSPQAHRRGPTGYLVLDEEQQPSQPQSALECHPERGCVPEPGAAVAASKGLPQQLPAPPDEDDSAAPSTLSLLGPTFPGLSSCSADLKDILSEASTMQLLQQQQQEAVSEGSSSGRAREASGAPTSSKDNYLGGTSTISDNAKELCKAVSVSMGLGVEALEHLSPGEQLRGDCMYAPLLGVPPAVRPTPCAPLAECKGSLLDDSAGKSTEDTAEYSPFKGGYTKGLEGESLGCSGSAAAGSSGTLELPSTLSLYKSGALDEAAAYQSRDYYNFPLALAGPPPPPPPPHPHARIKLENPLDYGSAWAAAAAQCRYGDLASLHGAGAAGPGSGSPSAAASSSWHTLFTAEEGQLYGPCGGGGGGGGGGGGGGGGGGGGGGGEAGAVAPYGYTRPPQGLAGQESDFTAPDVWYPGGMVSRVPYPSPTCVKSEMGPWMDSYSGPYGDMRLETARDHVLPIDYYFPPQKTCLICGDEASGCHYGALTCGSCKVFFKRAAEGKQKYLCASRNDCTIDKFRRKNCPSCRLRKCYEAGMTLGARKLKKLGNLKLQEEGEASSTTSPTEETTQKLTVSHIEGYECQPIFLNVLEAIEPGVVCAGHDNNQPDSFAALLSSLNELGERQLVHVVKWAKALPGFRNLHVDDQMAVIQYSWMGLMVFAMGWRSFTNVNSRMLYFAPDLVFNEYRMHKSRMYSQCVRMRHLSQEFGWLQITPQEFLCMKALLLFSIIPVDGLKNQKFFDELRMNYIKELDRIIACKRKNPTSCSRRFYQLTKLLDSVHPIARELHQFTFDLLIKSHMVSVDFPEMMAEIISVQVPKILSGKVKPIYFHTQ
As to the kind of experiment: AR Antagonist Cell Assay (MMTV-luciferase reporter, DHT-stimulated). The class given is cell-based. The conditions noted are these: MDA-MB453-MMTV clone 54-19 cells, inhibition of induction by 100 pM DHT, 17 hr. On the procedure:
The compounds ability to antagonize the effects of androgen on the androgen receptor were determined in the protocol described immediately below.
Experimental Procedure for AR Antagonist Cell Assay
Cell line: MDA-MB453-MMTV clone 54-19. This cell line is a stable transfected cell line with MDA-MB453 cell background (human breast tumor cell expressing high level of androgen receptor). A MMTV minimal promoter containing ARE was first cloned in front of a firefly luciferase reporter gene. Then the cascade was cloned into transfection vector pUV120puro. Electroporation method was used for transfecting MDA-MB-453 cell. Puromycin resistant stable cell line was selected.
Cell Culture Media and Reagents:
Culture medium: DMEM (high glucose, Gibco cat #: 11960-044), 10% FBS, and 1% L-glutamine
Plating medium: DMEM (phenol red free), 10% charcoal treated HyClone serum, 1% L-glutamine
Assay medium: DMEM (phenol red free), 1% charcoal treated HyClone serum, 1% L-glutamine, and 1% penicillin/streptomycin
3×luciferase buffer: 2% beta-mercaptoethanol, 0.6% ATP, 0.0135% luciferine in cell lysis buffer
• 1. Cells are maintained in culture medium, splitting cells when they reach 80–90% confluence • 2. To test compounds, 10,000 cells/well are plated to opaque 96 cell culture plate in 100 ul/well plating medium, culture for overnight at 37° C. in cell culture incubator • 3. Carefully remove plating medium, then add 80 ul/well of pre-warmed assay medium, add 10 ul/well testing compound (final concentration at 10 uM or 1 uM), incubate at 37° C. for 30 minutes • 4. Add 10 ul/well freshly prepared DHT (final concentration at 100 pM) to each well, incubate at 37° C. for 17 hr (overnight) • 5. Add 50 ul/well 3×luciferase buffer, incubate at room temperature for 5 minutes, then count on Luminometer
The fold induction over background by 100 pM DHT in the absence of testing compounds is standardized as 100% and experimental result is expressed as percentage of inhibition by testing compounds.

As for `CCOC(=O)C1CCCN(S(=O)(=O)c2ccc(Cc3ccc4[nH]c(=O)cc(C(F)(F)F)c4c3)cc2)C1` (centres unmarked) [Example 1, 1-[4-(2-Oxo-4-trifluoromethyl-1,2-dihydroquinolin-6-ylmethyl)benzenesulfonyl]-piperidine-3-carboxylicacid ethyl ester], the negative logarithm of the IC50 (pIC50) was < 5.00. `O=c1cc(C(F)(F)F)c2cc(Cc3ccc(S(=O)(=O)N4CCc5ccccc5C4)cc3)ccc2[nH]1` [Example 2, 6-[4-(3,4-Dihydro-1H-isoquinoline-2-sulfonyl)benzyl]-4-trifluoromethyl-1H-quinolin-2-one] had a pIC50 of 5.17.

Consider `COc1ccc(N2CCN(S(=O)(=O)c3ccc(Cc4ccc5[nH]c(=O)cc(C(F)(F)F)c5c4)cc3)CC2C)cc1` (centres unmarked) [Example 3, 6-{4-[4-(4-Methoxyphenyl)-3-methylpiperazine-1-sulfonyl]benzyl}-4-trifluoromethyl-1H-quinolin-2-one], for which the pIC50 is < 5.00. The same measure for `CCOC(=O)C1CCN(S(=O)(=O)c2ccc(Cc3ccc4[nH]c(=O)cc(C(F)(F)F)c4c3)cc2)CC1` [Example 4]: < 5.00. With `COc1cc2c(cc1OC)CN(S(=O)(=O)c1ccc(Cc3ccc4[nH]c(=O)cc(C(F)(F)F)c4c3)cc1)CC2` [Example 5, 6-[4-(6,7-Dimethoxy-3,4-dihydro-1H-isoquinoline-2-sulfonyl)benzyl]-4-trifluoromethyl-1H-quinolin-2-one], the negative logarithm of the IC50 (pIC50) was < 5.00. As to `O=c1cc(C(F)(F)F)c2cc(Cc3ccc(S(=O)(=O)N4CCC5(CC4)OCCO5)cc3)ccc2[nH]1` [Example 6, 6-[4-(1,4-Dioxa-8-azaspiro[4.5]decane-8-sulfonyl)benzyl]-4-trifluoromethyl-1H-quinolin-2-one], the pIC50 was < 5.00.

`O=c1cc(C(F)(F)F)c2cc(Cc3ccc(S(=O)(=O)N4CCCCC4CO)cc3)ccc2[nH]1` (centres unmarked) [Example 7, 6-[4-(2-Hydroxymethylpiperidine-1-sulfonyl)benzyl]-4-trifluoromethyl-1H-quinolin-2-one] showed a pIC50 of 5.01. For `CCN1CCN(S(=O)(=O)c2ccc(Cc3ccc4[nH]c(=O)cc(C(F)(F)F)c4c3)cc2)CC1` [Example 8, 6-[4-(4-Ethylpiperazine-1-sulfonyl)benzyl]-4-trifluoromethyl-1H-quinolin-2-one] the value was < 5.00; for `COC(=O)[C@@H]1CCCN1S(=O)(=O)c1ccc(Cc2ccc3[nH]c(=O)cc(C(F)(F)F)c3c2)cc1` [Example 9, 1-[4-(2-Oxo-4-trifluoromethyl-1,2-dihydroquinolin-6-ylmethyl)benzenesulfonyl]-pyrrolidine-2-carboxylicacid methyl ester], 5.27; for `O=c1cc(C(F)(F)F)c2cc(Cc3ccc(S(=O)(=O)N4CCN(CCO)CC4)cc3)ccc2[nH]1` [Example 10, 6-{4-[4-(2-Hydroxyethyl)piperazine-1-sulfonyl]benzyl}-4-trifluoromethyl-1H-quinolin-2-one], < 5.00. The same measure for `O=c1cc(C(F)(F)F)c2cc(Cc3ccc(S(=O)(=O)N4CCSC4)cc3)ccc2[nH]1` [Example 12, 6-[4-(Thiazolidine-3-sulfonyl)benzyl]-4-trifluoromethyl-1H-quinolin-2-one]: < 5.00.

With `O=C(CN1CCN(S(=O)(=O)c2ccc(Cc3ccc4[nH]c(=O)cc(C(F)(F)F)c4c3)cc2)CC1)N1CCCC1` [Example 13, 6-{4-[4-(2-Oxo-2-pyrrolidin-1-ylethyl)piperazine-1-sulfonyl]benzyl}-4-trifluoromethyl-1H-quinolin-2-one], the negative logarithm of the IC50 (pIC50) is < 5.00.

Turning to `O=c1cc(C(F)(F)F)c2cc(Cc3ccc(S(=O)(=O)N4CCCCC4c4cccnc4)cc3)ccc2[nH]1` (centres unmarked) [Example 14, 6-[4-(3,4,5,6-Tetrahydro-2H-[2,3′]bipyridinyl-1-sulfonyl)benzyl]-4-trifluoromethyl-1H-quinolin-2-one], the negative-log IC50 (pIC50) was 5.33. Turning to `CC1CCN(S(=O)(=O)c2ccc(Cc3ccc4[nH]c(=O)cc(C(F)(F)F)c4c3)cc2)CC1` [Example 15, 6-[4-(4-Methylpiperidine-1-sulfonyl)benzyl]-4-trifluoromethyl-1H-quinolin-2-one], the pIC50 is < 5.00. The same measure for `O=c1cc(C(F)(F)F)c2cc(Cc3ccc(S(=O)(=O)N4CCCCC4CCO)cc3)ccc2[nH]1` (centres unmarked) [Example 17, 6-{4-[2-(2-Hydroxyethyl)piperidine-1-sulfonyl]benzyl}-4-trifluoromethyl-1H-quinolin-2-one]: < 5.00. The compound `O=c1cc(C(F)(F)F)c2cc(Cc3ccc(S(=O)(=O)N4CCCC4CO)cc3)ccc2[nH]1` (centres unmarked) [Example 18, 6-[4-(2-Hydroxymethylpyrrolidine-1-sulfonyl)benzyl]-4-trifluoromethyl-1H-quinolin-2-one] showed a pIC50 of 5.10. `O=c1cc(C(F)(F)F)c2cc(Cc3ccc(S(=O)(=O)N4CCCC5CCCCC54)cc3)ccc2[nH]1` (centres unmarked) [Example 19, 6-[4-(Octahydroquinoline-1-sulfonyl)benzyl]-4-trifluoromethyl-1H-quinolin-2-one]: the negative-log IC50 (pIC50) is < 5.00. On to `O=c1cc(C(F)(F)F)c2cc(Cc3ccc(S(=O)(=O)N4CCCC4)cc3)ccc2[nH]1` [Example 20, 6-[4-(Pyrrolidine-1-sulfonyl)benzyl]-4-trifluoromethyl-1H-quinolin-2-one], for which the pIC50 is < 5.00. Regarding `O=c1cc(C(F)(F)F)c2cc(Cc3ccc(S(=O)(=O)N4CCCCCC4)cc3)ccc2[nH]1` [Example 21, 6-[4-(Azepane-1-sulfonyl)benzyl]-4-trifluoromethyl-1H-quinolin-2-one], the negative-log IC50 (pIC50) is 5.04. Turning to `CC1CCCCN1S(=O)(=O)c1ccc(Cc2ccc3[nH]c(=O)cc(C(F)(F)F)c3c2)cc1` (centres unmarked) [Example 22, 6-[4-(2-Methylpiperidine-1-sulfonyl)benzyl]-4-trifluoromethyl-1H-quinolin-2-one], the pIC50 is < 5.00. For `O=c1cc(C(F)(F)F)c2cc(Cc3ccc(S(=O)(=O)N4CCCCC4)cc3)ccc2[nH]1` [Example 23, 6-[4-(Piperidine-1-sulfonyl)benzyl]-4-trifluoromethyl-1H-quinolin-2-one], the pIC50 is < 5.00. In turn, `CC1CN(S(=O)(=O)c2ccc(Cc3ccc4[nH]c(=O)cc(C(F)(F)F)c4c3)cc2)CC(C)O1` (centres unmarked) [Example 24, 6-[4-(2,6-Dimethylmorpholine-4-sulfonyl)benzyl]-4-trifluoromethyl-1H-quinolin-2-one] gave a pIC50 of 5.19. On to `O=c1cc(C(F)(F)F)c2cc(Cc3ccc(S(=O)(=O)N4CCC4)cc3)ccc2[nH]1` [Example 25, 6-[4-(Azetidine-1-sulfonyl)benzyl]-4-trifluoromethyl-1H-quinolin-2-one], for which the pIC50 was 5.54. Consider `O=c1cc(C(F)(F)F)c2cc(Cc3ccc(S(=O)(=O)N4CCCc5ccccc54)cc3)ccc2[nH]1` [Example 26, 6-[4-(3,4-Dihydro-2H-quinoline-1-sulfonyl)benzyl]-4-trifluoromethyl-1H-quinolin-2-one], for which the pIC50 is 5.70. In the case of `O=c1cc(C(F)(F)F)c2cc(Cc3ccc(S(=O)(=O)N4CCCC(O)C4)cc3)ccc2o1` (centres unmarked) [Example 27, 6-[4-(3-Hydroxypiperidine-1-sulfonyl)benzyl]-4-trifluoromethylchromen-2-one], the pIC50 was < 5.00. For `CCOC(=O)C1CCCN(S(=O)(=O)c2ccc(Cc3ccc4oc(=O)cc(C(F)(F)F)c4c3)cc2)C1` (centres unmarked) [Example 28, 1-[4-(2-Oxo-4-trifluoromethyl-2H-chromen-6-ylmethyl)-benzenesulfonyl]piperidine-3-carboxylic acid ethylester] the value was < 5.00.

For the origin of these results see patent US7057048B2, “Androgen receptor antagonists” (Warner Lambert Company LLC, priority 2003, dated 2006).
